{"source": "paper PMC9496228", "about": "“Plasma Clearance of Intravenously Infused Adrenomedullin in Rats with Acute Renal Failure” (Biomolecules, 2022)", "key": {"[1]": {"test": "Human adrenomedullin 60-min continuous intravenous infusion study in rats, plasma pharmacokinetics", "format": "in vivo, rat", "conditions": "mean ± SD; for level at time molar at 1 h / half-life / clearance: male, Lewis, rat, in vivo; for level at time molar at 1 h: 0.1 ug/kg/min, hAM iv infusion 0.1 µg/kg/min, read-out: Plasma AM concentration at 60 min after initiating treatment (AM C60); for half-life: read-out: T1/2β, half-life in the terminal phase after stopping infusion; for clearance: hAM iv infusion 0.1 µg/kg/min for 60 min, dose divided by AUC0–60, read-out: CLtotal, total systemic clearance", "protocol": "Renal dysfunction was induced by subcutaneous injection of 3 mg/kg mercury chloride (1 mg/mL saline) to rats (RD-Ag, n = 7) on the day before the adrenomedullin pharmacokinetic study. Control rats were treated with saline (normal renal function, NF, n = 5). Twenty-four hours after injection of mercury chloride (4 h before hAM administration), blood was collected from the tail vein of rats and serum creatinine (sCr) was measured using DRI-CHEM (FUJIFILM, Tokyo, Japan) to confirm the severity of renal damage. After the hAM administration study, the lungs and kidneys were removed from each group of rats, immersed in RNAlater (Thermo Fisher Scientific, Waltham, MA, USA), and frozen at −30 °C for later analysis.\nRats were subjected to cannulation at the beginning as described below. After laparotomy through a midline abdominal incision, the bilateral renal artery and vein of the rat were exposed and blocked with vascular clips to develop another model of renal dysfunction (RD-Bl, n = 3). Immediately after the vascular blockade, the rats were studied for hAM infusion experiment.\nRats under isoflurane anesthesia were placed on a heated surgical table in the supine position and subjected to cannulation (PE 50, Becton, Dickinson and Company, Franklin Lakes, NJ, USA) of the carotid artery and jugular vein. Human AM was dissolved in 20% mannitol to a concentration of 300 ng/mL and continuously administered at 0.1 µg/kg/min for 60 min via venous cannula using an infusion pump (KDS-100, KD Scientific, Holliston, MA, USA). After hAM administration had begun, 0.6 mL of whole blood was drawn from the arterial cannula at 0, 5, 10, 20, 30, 45, 60, 61.5, 63, 65, 70, 75, 80, and 90 min.\n(§1) To measure plasma hAM concentrations, whole blood was collected with 2 mg/mL EDTA-2Na and 500 Kallikrein Inhibitory Units (KIU)/mL of aprotinin. Plasma was obtained by centrifugation at 10,000× g for 2 min at 4 °C and stored at −30 °C until the assays were performed. Plasma hAM concentration was measured using an automated immunoassay system (AIA-System, Tosoh Corporation, Tokyo, Japan) that was described previously, including intra- and inter-assay variations. This system is a one-step fluorescence sandwich immunoassay for the detection of human AM using two monoclonal antibodies against human AM(12–25) and AM(46–52).\nPharmacokinetic parameters in rats were calculated from individual plasma AM concentration vs time curves during and after 1 h intravenous infusion of hAM based on standard procedures. The area under the plasma concentration vs time curve (AUC0–60) was calculated during the first 60 min using a linear trapezoidal method, and the total systemic clearance (CLtotal) was calculated as the dose administered divided by AUC0–60. A plot of plasma concentration vs time after stopping hAM infusion yielded a biexponential curve. The elimination rate constant and half-life (T1/2β) in the terminal phase were calculated from individual plasma AM concentration vs time curves with a two-compartment model using the Solver tool in Microsoft Excel to minimize the sum of the squared residual values. Weighting was set to the standard deviation of plasma concentrations measured at each blood sampling point."}, "[2]": {"test": "Human adrenomedullin intraperitoneal administration study in E-RAMP2 KO and control mice, plasma concentration", "conditions": "mouse, in vivo, ip, 50 ug/kg, mean ± SD, read-out: Plasma AM concentration; for level at time molar at 10 min: 10 min after 50 μg/kg hAM intraperitoneally; for level at time molar at 0.5 h: 30 min after 50 μg/kg hAM intraperitoneally", "protocol": "E-RAMP2 KO mice (aged 9–10 weeks) were generated by intraperitoneal administration of 75 mg/kg tamoxifen suspended in corn oil (20 mg/mL) once daily for five consecutive days. Mice of the same strain treated only with corn oil were used as a control group. Three to four mice were prepared for each blood collection point.\nas §1"}, "[3]": {"target": "AM receptor (CLR and RAMP2 or -3 heterodimeric receptors)", "conditions": "read-out: equilibrium dissociation constant for its receptor (Kd); cited from earlier work", "text": "Therefore, the administered AM appears to bind almost exclusively to its receptor and undergo receptor-mediated clearance. The AM receptor is made up of CLR and RAMP2 or -3 heterodimeric receptors. RAMP2 or -3 is a molecular chaperone required for CLR transport to the cell surface as well as for specifying the affinity of CLR for AM [35]. The distribution of ^125I-labeled AM in ..."}, "[4]": {"conditions": "RD-Bl rats (bilateral renal blood flow blockage, n = 3)"}}, "note": "Like-named read-outs stand apart in the source and are kept apart here.", "data": [{"molecule": "CC[C@H](C)[C@H](NC(=O)[C@H](CCC(N)=O)NC(=O)[C@H](Cc1c[nH]cn1)NC(=O)[C@H](C)NC(=O)[C@H](CC(C)C)NC(=O)[C@H](CCCCN)NC(=O)[C@H](CCC(N)=O)NC(=O)[C@@H](NC(=O)[C@@H](NC(=O)[C@@H]1CSSC[C@H](NC(=O)CNC(=O)[C@H](Cc2ccccc2)NC(=O)[C@H](CO)NC(=O)[C@H](CCCNC(=N)N)NC(=O)[C@H](CC(C)C)NC(=O)CNC(=O)[C@H](CCC(N)=O)NC(=O)[C@H](Cc2ccccc2)NC(=O)[C@H](CC(N)=O)NC(=O)[C@H](CC(N)=O)NC(=O)[C@H](CCSC)NC(=O)[C@H](CO)NC(=O)[C@H](CCC(N)=O)NC(=O)[C@H](CCCNC(=N)N)NC(=O)[C@@H](N)Cc2ccc(O)cc2)C(=O)N[C@@H](CCCNC(=N)N)C(=O)N[C@@H](Cc2ccccc2)C(=O)NCC(=O)N[C@@H]([C@@H](C)O)C(=O)N1)[C@@H](C)O)C(C)C)C(=O)N[C@@H](Cc1ccc(O)cc1)C(=O)N[C@@H](CCC(N)=O)C(=O)N[C@@H](Cc1ccccc1)C(=O)N[C@H](C(=O)N[C@@H](CC(=O)O)C(=O)N[C@@H](CCCCN)C(=O)N[C@@H](CC(=O)O)C(=O)N[C@@H](CCCCN)C(=O)N[C@@H](CC(=O)O)C(=O)N[C@@H](CC(N)=O)C(=O)N[C@H](C(=O)N[C@@H](C)C(=O)N1CCC[C@H]1C(=O)N[C@@H](CCCNC(=N)N)C(=O)N[C@@H](CO)C(=O)N[C@@H](CCCCN)C(=O)N[C@H](C(=O)N[C@@H](CO)C(=O)N1CCC[C@H]1C(=O)N[C@@H](CCC(N)=O)C(=O)NCC(=O)N[C@@H](Cc1ccc(O)cc1)C(N)=O)[C@@H](C)CC)C(C)C)[C@@H](C)O", "note": "[AM, Human adrenomedullin]", "values": [{"measurement": "T1/2β, half-life in the terminal phase after stopping infusion", "setting": "[1]; RD-Ag rats (mercury chloride, n = 7), after 60-min iv infusion of hAM 0.1 µg/kg/min, two-compartment model", "result": "22.2 ± 9.8", "unit": "min"}, {"measurement": "level at time molar at 1 h", "setting": "[1]; [4]", "result": "0.0781 ± 0.0105", "unit": "nM"}, {"measurement": "half-life", "setting": "[1]; iv, 0.1 µg/kg/min, NF rats (n = 5), after 60-min iv infusion of hAM 0.1 µg/kg/min, two-compartment model", "result": "15 ± 1.4", "unit": "min"}, {"measurement": "clearance", "setting": "[1]; iv, 0.1 µg/kg/min, NF rats (n = 5)", "result": "752 ± 230", "unit": "mL/min/kg"}, {"measurement": "level at time molar at 1 h", "setting": "[1]; iv, NF rats (n = 5)", "result": "0.049 ± 0.0136", "unit": "nM"}, {"measurement": "clearance", "setting": "[1]; iv, 0.1 µg/kg/min, RD-Ag rats (mercury chloride, n = 7)", "result": "192 ± 102", "unit": "mL/min/kg"}, {"measurement": "level at time molar at 1 h", "setting": "[1]; iv, RD-Ag rats (mercury chloride, n = 7)", "result": "0.162 ± 0.0887", "unit": "nM"}, {"measurement": "half-life", "setting": "[1]; RD-Bl rats (bilateral renal blood flow blockage, n = 3), after 60-min iv infusion of hAM 0.1 µg/kg/min, two-compartment model", "result": "16.7 ± 1.8", "unit": "min"}, {"measurement": "clearance", "setting": "[1]; [4]", "result": "450 ± 68.9", "unit": "mL/min/kg"}, {"measurement": "level at time molar at 10 min", "setting": "[2]; E-RAMP2 KO mice (n = 3–4)", "result": "3.98 ± 0.381", "unit": "nM"}, {"measurement": "level at time molar at 0.5 h", "setting": "[2]; E-RAMP2 KO mice (n = 3–4)", "result": "0.759 ± 0.234", "unit": "nM"}, {"measurement": "level at time molar at 10 min", "setting": "[2]; control mice (Cont, n = 3–4)", "result": "1.07 ± 0.595", "unit": "nM"}, {"measurement": "level at time molar at 0.5 h", "setting": "[2]; control mice (Cont, n = 3–4)", "result": "0.118 ± 0.0737", "unit": "nM"}, {"measurement": "Kd", "setting": "[3]", "result": "0.3 to 0.6", "unit": "nM"}]}]}
